The Km is the concentration of substrate that gives half-maximal velocity.

The target in data set [1] is T1, Solute carrier family 22 member 2 (Homo sapiens, UniProt O15244).
T1 sequence (O15244 whole entry): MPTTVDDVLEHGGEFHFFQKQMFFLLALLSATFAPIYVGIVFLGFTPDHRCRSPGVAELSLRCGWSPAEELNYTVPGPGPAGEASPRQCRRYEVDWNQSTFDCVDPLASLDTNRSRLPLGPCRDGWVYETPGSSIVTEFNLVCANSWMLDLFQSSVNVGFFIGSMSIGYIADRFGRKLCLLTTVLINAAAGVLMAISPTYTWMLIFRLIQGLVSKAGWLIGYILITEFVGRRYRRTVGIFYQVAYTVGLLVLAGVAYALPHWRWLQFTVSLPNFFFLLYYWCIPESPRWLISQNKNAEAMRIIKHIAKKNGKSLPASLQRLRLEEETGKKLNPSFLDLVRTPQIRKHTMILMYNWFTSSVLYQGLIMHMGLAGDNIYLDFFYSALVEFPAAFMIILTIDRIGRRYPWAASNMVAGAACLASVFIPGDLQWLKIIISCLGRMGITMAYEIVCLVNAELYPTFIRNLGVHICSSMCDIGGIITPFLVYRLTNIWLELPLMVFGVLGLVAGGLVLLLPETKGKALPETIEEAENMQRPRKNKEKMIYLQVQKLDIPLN
Briefly: TP_TRANSPORTER: inhibition of Choline uptake (Choline: 10 uM, NMN: 5000 uM) in Xenopus laevis oocytes. Type of data set: functional, cell-based. The following applies: oocyte.

Data set [2] has as its target T2, Solute carrier family 22 member 1 (Rattus norvegicus, UniProt Q63089).
T2 sequence (Q63089 whole entry): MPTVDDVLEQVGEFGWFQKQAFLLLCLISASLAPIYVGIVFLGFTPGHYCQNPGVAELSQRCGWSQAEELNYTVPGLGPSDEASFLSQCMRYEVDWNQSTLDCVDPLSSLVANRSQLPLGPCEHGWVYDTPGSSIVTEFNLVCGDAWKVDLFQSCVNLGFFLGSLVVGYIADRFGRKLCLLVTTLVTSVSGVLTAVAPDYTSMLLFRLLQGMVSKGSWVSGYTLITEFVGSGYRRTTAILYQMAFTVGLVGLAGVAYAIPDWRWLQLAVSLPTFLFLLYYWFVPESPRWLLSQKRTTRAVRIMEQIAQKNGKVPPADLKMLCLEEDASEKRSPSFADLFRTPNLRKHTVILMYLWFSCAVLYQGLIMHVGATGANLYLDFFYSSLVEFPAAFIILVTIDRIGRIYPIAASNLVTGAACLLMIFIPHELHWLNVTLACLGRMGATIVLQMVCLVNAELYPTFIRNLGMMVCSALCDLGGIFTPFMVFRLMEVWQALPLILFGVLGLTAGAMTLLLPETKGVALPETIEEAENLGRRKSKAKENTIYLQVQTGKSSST
Briefly: (§1) TP_TRANSPORTER: inhibition of Choline uptake (Choline: 10 uM, Quinine: 200 uM) in Xenopus laevis oocytes. Type of data set: functional, cell-based. Particulars: oocyte.

Data set [3] deals with T3, Solute carrier family 22 member 2 (Rattus norvegicus, UniProt Q9R0W2).
T3 sequence (Q9R0W2 whole entry): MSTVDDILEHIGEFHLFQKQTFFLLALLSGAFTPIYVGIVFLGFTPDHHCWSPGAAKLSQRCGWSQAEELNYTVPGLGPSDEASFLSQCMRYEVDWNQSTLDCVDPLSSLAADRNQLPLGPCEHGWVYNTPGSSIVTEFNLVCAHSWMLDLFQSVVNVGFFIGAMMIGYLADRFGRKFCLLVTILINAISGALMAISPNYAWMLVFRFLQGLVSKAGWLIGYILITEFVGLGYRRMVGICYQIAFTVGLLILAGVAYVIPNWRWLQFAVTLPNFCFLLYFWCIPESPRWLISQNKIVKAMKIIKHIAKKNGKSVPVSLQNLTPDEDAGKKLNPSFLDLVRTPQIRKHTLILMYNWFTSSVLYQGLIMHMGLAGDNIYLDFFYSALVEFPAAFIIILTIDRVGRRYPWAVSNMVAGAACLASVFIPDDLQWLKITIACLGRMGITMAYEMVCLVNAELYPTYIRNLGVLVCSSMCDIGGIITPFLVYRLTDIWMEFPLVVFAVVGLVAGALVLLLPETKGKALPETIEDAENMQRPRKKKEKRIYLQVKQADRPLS
The data set is described as §1. Type of data set: functional, cell-based. Particulars: oocyte.

Data set [4] addresses T1, Solute carrier family 22 member 2. Briefly: TP_TRANSPORTER: inhibition of Choline uptake (Choline: 10 uM, TPeA: 200 uM) in Xenopus laevis oocytes. It is filed as functional, cell-based. Particulars: oocyte.
Substrate in data set [5]: C[N+](C)(C)CCO
In words: cells, lysate or membranes named.

As for `CNC(=O)c1cccnc1` [NICOTINYL METHYLAMIDE], the Activity entry in data set [1] was “inhibitor [+]”. Take `C=C[C@H]1C[N@@]2CC[C@H]1C[C@H]2[C@H](O)c1ccnc2ccc(OC)cc12` [QUININE]: the Activity entry in data set [2] and in data set [3] was “inhibitor [+]” throughout. For the molecule `CCCCC[N+](CCCCC)(CCCCC)CCCCC` [TETRAPENTYLAMMONIUM], the Activity entry in data set [4] is “inhibitor [+]”.

B1: Solute carrier family 22 member 1 (Rattus norvegicus) (protein)
chain: MPTVDDVLEQVGEFGWFQKQAFLLLCLISASLAPIYVGIVFLGFTPGHYCQNPGVAELSQRCGWSQAEELNYTVPGLGPSDEASFLSQCMRYEVDWNQSTLDCVDPLSSLVANRSQLPLGPCEHGWVYDTPGSSIVTEFNLVCGDAWKVDLFQSCVNLGFFLGSLVVGYIADRFGRKLCLLVTTLVTSVSGVLTAVAPDYTSMLLFRLLQGMVSKGSWVSGYTLITEFVGSGYRRTTAILYQMAFTVGLVGLAGVAYAIPDWRWLQLAVSLPTFLFLLYYWFVPESPRWLLSQKRTTRAVRIMEQIAQKNGKVPPADLKMLCLEEDASEKRSPSFADLFRTPNLRKHTVILMYLWFSCAVLYQGLIMHVGATGANLYLDFFYSSLVEFPAAFIILVTIDRIGRIYPIAASNLVTGAACLLMIFIPHELHWLNVTLACLGRMGATIVLQMVCLVNAELYPTFIRNLGMMVCSALCDLGGIFTPFMVFRLMEVWQALPLILFGVLGLTAGAMTLLLPETKGVALPETIEEAENLGRRKSKAKENTIYLQVQTGKSSST
On to B1, for which the Km in data set [5] worked out at 346 µM.

B2: Solute carrier family 22 member 2 (Rattus norvegicus) (protein)
chain: MSTVDDILEHIGEFHLFQKQTFFLLALLSGAFTPIYVGIVFLGFTPDHHCWSPGAAKLSQRCGWSQAEELNYTVPGLGPSDEASFLSQCMRYEVDWNQSTLDCVDPLSSLAADRNQLPLGPCEHGWVYNTPGSSIVTEFNLVCAHSWMLDLFQSVVNVGFFIGAMMIGYLADRFGRKFCLLVTILINAISGALMAISPNYAWMLVFRFLQGLVSKAGWLIGYILITEFVGLGYRRMVGICYQIAFTVGLLILAGVAYVIPNWRWLQFAVTLPNFCFLLYFWCIPESPRWLISQNKIVKAMKIIKHIAKKNGKSVPVSLQNLTPDEDAGKKLNPSFLDLVRTPQIRKHTLILMYNWFTSSVLYQGLIMHMGLAGDNIYLDFFYSALVEFPAAFIIILTIDRVGRRYPWAVSNMVAGAACLASVFIPDDLQWLKITIACLGRMGITMAYEMVCLVNAELYPTYIRNLGVLVCSSMCDIGGIITPFLVYRLTDIWMEFPLVVFAVVGLVAGALVLLLPETKGKALPETIEDAENMQRPRKKKEKRIYLQVKQADRPLS
With B2, the Km in data set [5] was determined as 441 µM.

B3: Solute carrier family 22 member 2 (Homo sapiens) (protein)
chain: MPTTVDDVLEHGGEFHFFQKQMFFLLALLSATFAPIYVGIVFLGFTPDHRCRSPGVAELSLRCGWSPAEELNYTVPGPGPAGEASPRQCRRYEVDWNQSTFDCVDPLASLDTNRSRLPLGPCRDGWVYETPGSSIVTEFNLVCANSWMLDLFQSSVNVGFFIGSMSIGYIADRFGRKLCLLTTVLINAAAGVLMAISPTYTWMLIFRLIQGLVSKAGWLIGYILITEFVGRRYRRTVGIFYQVAYTVGLLVLAGVAYALPHWRWLQFTVSLPNFFFLLYYWCIPESPRWLISQNKNAEAMRIIKHIAKKNGKSLPASLQRLRLEEETGKKLNPSFLDLVRTPQIRKHTMILMYNWFTSSVLYQGLIMHMGLAGDNIYLDFFYSALVEFPAAFMIILTIDRIGRRYPWAASNMVAGAACLASVFIPGDLQWLKIIISCLGRMGITMAYEIVCLVNAELYPTFIRNLGVHICSSMCDIGGIITPFLVYRLTNIWLELPLMVFGVLGLVAGGLVLLLPETKGKALPETIEEAENMQRPRKNKEKMIYLQVQKLDIPLN
With B3, the Michaelis-Menten constant (Km) in data set [5] came to 102 µM.
